Starred links: 1 amine or outer side, 2 acyl side, 3 side chain; linkers in the order of their positions; H or OH if unused. Positions of bridges follow the written chain, without caps; N, C: chain ends. Residues, ends and D or L forms follow the SMILES beside them. *: point of attachment. C18 diacid = O=C(O)CCCCCCCCCCCCCCCCC(=O)*; γGlu = O=C(O)[C@H](CCC(=O)[*:2])N[*:1]; AEEA = NCCOCCOCC(=O)O

The values below come from patent US20240209028A1, “CNP COMPOUNDS” (priority 2022, published 2024).

Data set [1] can be described thus: Local tolerance of CNP compounds in rats (s.c. injection, histopathology). Conditions: for assessment for human subcutaneous administration: based on rat local tolerance. Format: in vivo, Sprague Dawley rat. The method in brief: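 Male Sprague Dawley rats (10-11 weeks) received two s.c. injections of 250 or 350 uL compound (1000 nmol/mL formulation) in neck or flank, 120 h before necropsy; vehicle 5 mM sodium acetate/250 mM glycerol pH 4.0 or 8 mM sodium phosphate/250 mM glycerol pH 7.4. Injection sites were scored macroscopically, H&E-stained and graded on a 5-level scale (Min to Sev).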

Data set [2] can be described thus: CNP local tolerance study in LYD pigs (s.c. injection, histopathology). Type of data set: in vivo, domestic LYD pig. Conditions: for assessment for human subcutaneous administration: based on pig local tolerance. In a few lines:
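Domestic pigs dosed s.c. mid-back, 100 or 200 μl at approx. 4400 μM, in phosphate pH 6.5 or acetate pH 4.0 buffers with glycerol or propylene glycol; saline as negative control. Sites excised 4 or 5 days post injection, H&E sections graded on 5-level scale; necrosis used as marker.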

For data set [3], the system named is mouse metatarsal bones. Nature of the data set: Mouse metatarsal bone dissection and culture (ex vivo bone growth). Format: cell-based, mouse (NMRI). Conditions: 100 nM, n=8. As to the method:
The purpose of this study was to evaluate bone growth after administration of CNP compounds in an ex vivo mouse model.
Procedure: One-day old mouse pups (NMRI, Javier Labs France) were euthanised prior to dissection. All applicable international and internal Novo Nordisk guidelines for care and use of animals were followed. The three middle metatarsal bones were dissected out from each hind paw. The dissected bones were placed in 24-well cell culture plates and cultured in 400 μl a-Minimum Essential Media supplemented with 0.2% BSA, 1% Pen/Strep at 37° C. and 5% CO2. The bones from all animals were randomised into a control group and six CNP compound-treated groups (100 nM; n=8). The medium was changed every 2-3 days. All compounds were formulated according to the principles described in General Methods of Preparation—Method G. Compounds 9435 and 9483 were formulated in A) 5 mM sodium acetate, 250 mM glycerol, pH 4.0 while compounds 9384, 9407, 9480 and 9482 were formulated in B) 8 mM sodium phosphate, 250 mM glycerol, pH 7.4.
Digital pictures were captured on day 0, 4, 7, 11, and 14 using a digital camera attached to a Nikon microscope. The length of each metatarsal bone was measured using ImageJ software and increase in bone length was expressed as percentage change from the length measured at the day of dissection (Mean (SD)).
In Table 27, metatarsal bones were isolated from mice and cultured for up to 14 days. Length was measured every 3-4 days throughout the study and expressed as percentage change from day 0 (Mean (SD)). Statistically significant differences are indicated compared to control group (two-way ANOVA).

Where [4] appears, read: 5 days after subcutaneous injections in the rat.
The mark [5] stands for this setting: 5 days after subcutaneous injections in the pig.

`CC[C@H](C)[C@@H]1NC(=O)[C@H](CCCNC(=N)N)NC(=O)[C@H](CCC(=O)O)NC(=O)[C@H](CC(C)C)NC(=O)[C@H](CCCCN)NC(=O)[C@H](CC(C)C)NC(=O)CNC(=O)[C@H](Cc2ccccc2)NC(=O)[C@@H](NC(=O)CNC(=O)[C@H](CCCCN)NC(=O)[C@H](CO)NC(=O)[C@H](CC(C)C)NC(=O)CNC(=O)[C@H](CCCCN)NC(=O)[C@H](CCCCN)NC(=O)[C@H](CCC(N)=O)NC(=O)[C@H](C)NC(=O)CNC(=O)[C@H](CCCCN)NC(=O)[C@H](Cc2ccc(O)cc2)NC(=O)[C@H](CCCCN)NC(=O)[C@H](CCCNC(=N)N)NC(=O)[C@H](C)NC(=O)COCCOCCNC(=O)COCCOCCNC(=O)CC[C@H](NC(=O)CCCCCCCCCCCCCCCCC(=O)O)C(=O)O)CSSC[C@@H](C(=O)O)NC(=O)CNC(=O)[C@H](CC(C)C)NC(=O)CNC(=O)[C@H](CO)NC(=O)[C@H](CC(C)C)NC(=O)[C@H](CO)NC(=O)CNC1=O` [compound 0776] ({C18 diacid-γGlu-AEEA-AEEA}-ARKYKGAQKKGLSKGCFGLKLERIGSLSGLGC-OH; disulfide 16-32): the local subcutaneous necrosis result in data set [1] (rat, in vivo, sc) is reported as “moderate to marked”; in data set [2] (pig, in vivo, sc), “moderate to marked”.

Consider `CC[C@H](C)[C@@H]1NC(=O)[C@H](CCCNC(=N)N)NC(=O)[C@H](CC(=O)O)NC(=O)[C@H](CC(C)C)NC(=O)[C@@H]2CCCN2C(=O)[C@H](CC(C)C)NC(=O)CNC(=O)[C@H](Cc2ccccc2)NC(=O)[C@@H](NC(=O)CNC(=O)[C@H](CCC(N)=O)NC(=O)[C@H](CO)NC(=O)[C@H](CO)NC(=O)CNC(=O)[C@H](CCCCN)NC(=O)[C@H](CCCCN)NC(=O)[C@H](CCC(N)=O)NC(=O)[C@H](C)NC(=O)CNC(=O)[C@@H]2CCCN2C(=O)[C@H](C)NC(=O)[C@H](CCC(N)=O)NC(=O)CNC(=O)COCCOCCNC(=O)COCCOCCNC(=O)CC[C@H](NC(=O)CCCCCCCCCCCCCCCCC(=O)O)C(=O)O)CSSC[C@@H](C(=O)O)NC(=O)CNC(=O)[C@H](CC(C)C)NC(=O)CNC(=O)[C@H](CO)NC(=O)[C@H](CC(C)C)NC(=O)[C@H](CO)NC(=O)CNC1=O` [compound 9384] ({C18 diacid-γGlu-AEEA-AEEA}-GQAPGAQKKGSSQGCFGLPLDRIGSLSGLGC-OH; disulfide 15-31; C-terminus assumed), for which the local subcutaneous necrosis result in data set [1] (setting [4]) is listed as “no or mild”; in data set [2] (setting [5]), “no to minimal”. For the same compound, the “assessment for human subcutaneous administration” value in data set [1] and in data set [2] was “acceptable” throughout. The “Increase in bone length, mean (%) change from day 0” value in data set [3] (day 4 in culture) is 33.6%; in data set [3] (day 7 in culture), 42.6%; in data set [3] (day 11 in culture), 50.1%; in data set [3] (day 14 in culture) it was 54.4%.

On to `CC[C@H](C)[C@@H]1NC(=O)[C@H](CCCNC(=N)N)NC(=O)[C@H](CC(=O)O)NC(=O)[C@H](CC(C)C)NC(=O)[C@@H]2CCCN2C(=O)[C@H](CC(C)C)NC(=O)CNC(=O)[C@H](Cc2ccccc2)NC(=O)[C@@H](NC(=O)CNC(=O)[C@H](CCC(N)=O)NC(=O)[C@H](CO)NC(=O)[C@H](CC(C)C)NC(=O)CNC(=O)[C@H](CCCCN)NC(=O)[C@H](CCCCN)NC(=O)[C@H](CCC(N)=O)NC(=O)[C@H](C)NC(=O)CNC(=O)[C@H](CCCCN)NC(=O)[C@H](Cc2ccc(O)cc2)NC(=O)[C@H](CCCCN)NC(=O)[C@H](CCCNC(=N)N)NC(=O)[C@H](C)NC(=O)COCCOCCNC(=O)COCCOCCNC(=O)COCCOCCNC(=O)COCCOCCNC(=O)CC[C@H](NC(=O)CC[C@H](NC(=O)CC[C@H](NC(=O)CC[C@H](NC(=O)CC[C@H](NC(=O)CCCCCCCCCCCCCCCCC(=O)O)C(=O)O)C(=O)O)C(=O)O)C(=O)O)C(=O)O)CSSC[C@@H](C(=O)O)NC(=O)CNC(=O)[C@H](CC(C)C)NC(=O)CNC(=O)[C@H](CO)NC(=O)[C@H](CC(C)C)NC(=O)[C@H](CO)NC(=O)CNC1=O` [compound 9407] ({C18 diacid-γGlu-γGlu-γGlu-γGlu-γGlu-AEEA-AEEA-AEEA-AEEA}-ARKYKGAQKKGLSQGCFGLPLDRIGSLSGLGC-OH; disulfide 16-32), for which the figures for the local subcutaneous necrosis entry in data set [1] (setting [4]) and in data set [2] (setting [5]) were “no or mild” and “no to minimal”, respectively. The “assessment for human subcutaneous administration” value in data set [1] and in data set [2] was “acceptable” each time. Also, the “Increase in bone length, mean (%) change from day 0” value is reported as 35.1% in data set [3] (day 4 in culture), 45.4% in data set [3] (day 7 in culture), 53.2% in data set [3] (day 11 in culture) and 55.8% in data set [3] (day 14 in culture).
